# Assay results reported in patent publication US20140363378A1, “SELF-ASSEMBLING MOLECULES THAT ACCUMULATE IN ACIDIC TUMOR MICROENVIRONMENTS” (The Ohio State University, priority 2012, published 2014).
# Peptide text beside a SMILES is read from it. * marks the point of attachment. Palmitoyl = CCCCCCCCCCCCCCCC(=O)*; DO3A:Gd = Gd-chelated DO3A
# Key:
# Assay type in all cases: physicochemical
# [1] = Transmission electron microscopy (TEM) of self-assembled morphology; conditions: 0.5 mM PA
# Experimental: At a pH of 7.75, HCl was added until the pH was 6.1, and the resulting β-sheet CD spectrum was collected within three minutes. An appropriate amount of NaOH was then added to reverse the pH back to 7.70, and random coil behavior was observed again. […] Conventional transmission electron microscopy (TEM) imaging was used to determine the morphology of 10 μM of PA 1, at pH values of 6 and 8 (FIG. 6A, 6B). The TEM grids were prepared within three minutes of pH adjustment. […] This nanofiber diameter corresponds roughly to twice the molecular length based on MM+ molecular simulations, corresponding approximately to the expected diameter of cylindrical fibers consisting of hydrophobically collapsed β-sheets.
# TEM images were obtained using solutions of either 10 μM or 0.5 mM peptide amphiphile concentration, as well as 150 mM NaCl and 2.2 mM CaCl2 in Milli-Q water. The solutions were first heated at 80° C. for 30 minutes in a water bath and then gradually cooled to room temperature. This was followed by pH adjustment using either HCl or NaOH. 5 μL of this solution was pipetted onto a Carbon Formvar grid (Electron Microscopy Sciences) and allowed to sit for 2 minutes before being wicked dry using filter paper. For the 10 μM experiments that were performed to determine the time dependence of nanofiber formation, solutions were dropcast onto the grid within three minutes of pH adjustment. […]
# [2] = pH titration of peptide amphiphiles; conditions: aqueous solution of 150 mM NaCl and 2.2 mM CaCl2, glutamic acid residues, 10 μM PA
# Experimental: The titration measurements were conducted on 10 μM peptide amphiphile solutions prepared in 150 mM NaCl and 2.2 mM CaCl2 using milli-Q water. The solution was heated at 80° C. for 30 minutes followed by slow cooling at room temperature. The pH of the solution was then adjusted to 4 using HCl. Finally, an Accumet XL15 pH meter (Fisher Scientific) coupled with an Orion Ross Ultra semi-micro electrode (8103BNUWP, Thermo Scientific) was used to track changes in pH of the solution as NaOH solution was added in small increments. pKa values were obtained from the second inflection points of the first derivative plots of the titration data. The first transition corresponds to neutralization of excess HCl. The calculated pKas reflect the average pKa for all four glutamic acids.
# [3] = Circular dichroism (CD) spectroscopy of pH-triggered self-assembly transition; conditions: for each concentration (10 μM, 500 μM)
# Experimental: The target PA concentration (10 μM) was below the detectable limit of conventional techniques to determine the morphology such as cryoTEM and small-angle X-ray scattering. Consequently, circular dichroism (CD) spectroscopy was initially used to characterize the morphology of these PAs at various pH values. PA 1 was the first molecule synthesized that underwent a self-assembly transition in the desired pH range of 6.6-7.4 at 10 μM PA concentration, in 150 mM NaCl and 2.2 mM CaCl2 (FIG. 2A) (Goldberger, J. E., et al. Angew. Chem. Int. Ed. 2011 50:6292-95). […] The transition pH from random coil to β-sheet occurred at a pH of 6.6. The transition pH was defined as the value at which the ellipticity at 205 nm rises to zero, followed by the appearance of a minimum at 218-220 nm.
# Measurements were done on a Jasco-815 Circular Dichroism spectrometer using 1 cm path length quartz cuvettes. […] Double deionized Milli-Q water was used for preparing all solutions. The solutions were then heated at 80° C. for 30 minutes in a water bath and gradually cooled to room temperature. […]
molecule,measurement,setting,value
Palmitoyl-IAAAEEEEK(DO3A:Gd)-NH2 (also: Gd complex of DO3A) [PA 5],diameter of nanofibers,[1]; pH 4,11.9±1.6 nm
same,diameter of spherical micelles,[1]; pH 10,10.0±1.2 nm
CCCCCCCCCCCCCCCC(=O)N[C@H](C(=O)N[C@@H](C)C(=O)N[C@@H](C)C(=O)N[C@@H](C)C(=O)N[C@@H](CCC(=O)O)C(=O)N[C@@H](CCC(=O)O)C(=O)N[C@@H](CCC(=O)O)C(=O)N[C@@H](CCC(=O)O)C(N)=O)C(C)C [PA 3] (Palmitoyl-VAAAEEEE-NH2),pKa,[2],4.86 ± 0.11
Palmitoyl-VAAAEEEEK(DO3A:Gd)-NH2 (also: Gd complex of DO3A) [PA 6],"nanofiber to micelle transition pH, lower than PA 5 by",[3],0.4 units
CCCCCCCCCCCCCCCC(=O)N[C@@H](Cc1ccccc1)C(=O)N[C@@H](C)C(=O)N[C@@H](C)C(=O)N[C@@H](C)C(=O)N[C@@H](CCC(=O)O)C(=O)N[C@@H](CCC(=O)O)C(=O)N[C@@H](CCC(=O)O)C(=O)N[C@@H](CCC(=O)O)C(N)=O [PA 2] (Palmitoyl-FAAAEEEE-NH2),pKa,[2],4.94 ± 0.09
CCCCCCCCCCCCCCCC(=O)N[C@@H](Cc1ccc(O)cc1)C(=O)N[C@@H](C)C(=O)N[C@@H](C)C(=O)N[C@@H](C)C(=O)N[C@@H](CCC(=O)O)C(=O)N[C@@H](CCC(=O)O)C(=O)N[C@@H](CCC(=O)O)C(=O)N[C@@H](CCC(=O)O)C(N)=O [PA 4] (Palmitoyl-YAAAEEEE-NH2),pKa,[2],4.7 ± 0.1
CCCCCCCCCCCCCCCC(=O)N[C@H](C(=O)N[C@@H](C)C(=O)N[C@@H](C)C(=O)N[C@@H](C)C(=O)N[C@@H](CCC(=O)O)C(=O)N[C@@H](CCC(=O)O)C(=O)N[C@@H](CCC(=O)O)C(=O)N[C@@H](CCC(=O)O)C(N)=O)[C@@H](C)CC [PA 1] (Palmitoyl-IAAAEEEE-NH2),pKa,[2],4.66 ± 0.1
